Measured values reported in PMC5077133, “Towards Development of Small Molecule Lipid II Inhibitors as Novel Antibiotics” (PLoS ONE, 2016).
Where two headings read alike, the source gives them in different places.

What was measured:
A. baumanii ATCC 19606 = experiment: Antibacterial activity (MIC, broth dilution); type: cell-based, Acinetobacter baumanii; settings: CLSI, in µg/mL
Outline: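 MIC determined by broth dilution following CLSI standards, using A. baumanii ATCC 19606.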

[1] = Lipid II binding by Surface Plasmon Resonance; settings: SPR, immobilized 3-Lipid II, 25°C
Outline: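 Farnesyl (3-isoprene) Lipid II amine-coupled (50 RUs) on CM5 chips. Compounds injected at 10 μM, 30 μl/min, 25°C, in 10 mM HEPES, 150 mM NaCl, 0.05% P20, pH 7.4 (± 3 mM EDTA), 10% DMSO. Signals corrected against control flow-cell; kinetics fitted from binding isotherms.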

E. faecalis EF1509 = experiment: MIC for the strain used in macromolecular synthesis assays; type: cell-based; settings: Enterococcus faecalis
Protocol: Determination of the Minimal Inhibitory Concentrations (MIC) by dilution was carried out by broth dilution according to CLSI standards.
(§1) The effect of compounds on the macromolecular synthetic pathways of E. faecalis EF1509 were measured as follows: Cells were grown at 35°C overnight on Tryptic Soy Agar Broth (Remel, Lenexa, KS), and growth from the plate was used to inoculate 15 ml of Mueller Hinton Broth. The culture was grown to early exponential growth phase (OD600 = 0.2 to 0.3) while incubating in a shaker at 35°C and 150 rpm. For each macromolecular assay, the test agents were added at either 0, 0.25, 0.5, 1, 2, or 4, -fold their respective MIC values for E. faecalis EF1509.

[2] = test system: cell wall synthesis in E. faecalis EF1509; experiment: Macromolecular synthesis assay: cell wall synthesis; type: cell-based; settings: Enterococcus faecalis; E. faecalis EF1509, [14C] N-acetyl-glucosamine incorporation; read-out: IC50 inhibition of cell wall synthesis
Protocol: The effect of compounds on the macromolecular synthetic pathways of E. faecalis EF1509 were measured as follows: Cells were grown at 35°C overnight on Tryptic Soy Agar Broth (Remel, Lenexa, KS), and growth from the plate was used to inoculate 15 ml of Mueller Hinton Broth. The culture was grown to early exponential growth phase (OD600 = 0.2 to 0.3) while incubating in a shaker at 35°C and 150 rpm. For each macromolecular assay, the test agents were added at either 0, 0.25, 0.5, 1, 2, or 4, -fold their respective MIC values for E. faecalis EF1509. […] For cell wall synthesis, bacterial cells in early exponential growth phase were transferred to M9 minimal medium and added to 1.5 ml eppendorf tubes (100 μl/tube) containing various concentrations of test compound or control antibiotics (2.5 μl) at 40X the final concentration in 100% DMSO as described above. Following a 5 min incubation at 37°C, [^14C] N-acetyl-glucosamine (0.4 μCi/reaction) was added to each tube and incubated for 45 min in a 37°C heating block. Reactions were stopped through the addition of 100 μl of 8% SDS to each tube. […] After washing three times with 5 ml of 0.1% SDS, the filters were rinsed two times with 5 ml of deionized water, allowed to dry, and then counted using a Beckman LS3801 liquid scintillation counter.

[3] = test system: DNA synthesis in E. faecalis EF1509; experiment: Macromolecular synthesis assay: DNA synthesis; type: cell-based; settings: Enterococcus faecalis; E. faecalis EF1509, [3H]Thymidine incorporation; read-out: IC50 inhibition of DNA synthesis
Protocol: as §1
For DNA and protein synthesis, 100 μl of cell culture reaching early exponential phase was added to triplicate wells containing various concentrations of test compound or control antibiotics (2.5 μl) at 40X the final concentration in 100% DMSO (0.1% methanol in water for Rifampicin). A 2.5% DMSO treated culture served as the “no drug” control for all experiments. Cells were added in 1.25X strength MHB to account for the volume of drug added to each reaction, or in M9 minimal medium for protein synthesis reactions. […] After washing five times with 200 μl per well of cold 5% TCA, the filters were allowed to dry, and then counted using a Packard Top Count microplate scintillation counter.

[4] = Pharmacokinetic study in mice; type: in vivo, male CD1 mice; set-up: AUClast/D: unit not given here; settings: for half-life / bioavailability: male, CD1, mouse
[5] = PO 5 mg/kg, male CD1 mice, 5 mg/kg
[6] = mouse, plasma, IV 2.5 mg/kg, male CD1 mice
[7] = mouse, plasma, PO 5 mg/kg, male CD1 mice

CN1/C(=C/C=C/c2cc(-c3ccccc3)cc(-c3ccccc3)[o+]2)C(C)(C)c2ccccc21 [BAS-00127538, (1-Methyl-2,4-diphenyl-6-((1E,3E)-3-(1,3,3-trimethylindolin-2-ylidene)prop-1-en-1-yl)pyryl-1-ium) tetrafluoroborate, reference compound]
Antibacterial activity (MIC) A. baumanii ATCC 19606 (A. baumanii ATCC 19606): 4
Kd [1]: 1810 ± 300 nM
MIC (E. faecalis EF1509): 2 µg/mL
IC50 [2]: 1.1 µg/mL
IC50 [3]: 1.8 µg/mL
Detection in plasma upon oral administration ([4]; oral administration (not shown)): could not be detected

CN(C)c1ccc(/C=C/c2cc(-c3ccc(Br)cc3)cc(-c3ccc(Br)cc3)[o+]2)cc1 [6jc48-1]
Antibacterial activity (MIC) A. baumanii ATCC 19606 (A. baumanii ATCC 19606): >=64
Kd [1]: 150 ± 30 nM
MIC (E. faecalis EF1509): 4 µg/mL
IC50 [2]: 3.8 µg/mL
IC50 [3]: 8.3 µg/mL
AUClast/D ([4]; IV […], male CD1 mice): 536±47
AUCExtrap ([4]; PO 5 mg/kg, male CD1 mice): 48.6%
AUClast/D ([4]; PO 5 mg/kg, male CD1 mice): 9.4
Vss_obs ([4]; PO 5 mg/kg, male CD1 mice): 1.75 L/kg
Finf (bioavailability) [4, 5]: 2.54%
T1/2 [4, 5]: 2.78 h
half-life ([4]; plasma, iv, […], male CD1 mice): > 13 h
half-life ([4]; plasma, po, 5 mg/kg, PO 5 mg/kg, male CD1 mice): ~3 h
bioavailability ([4]; plasma, po, 5 mg/kg, PO 5 mg/kg, male CD1 mice, read-out: Finf (bioavailability)): ~2.5%
bioavailability ([4]; plasma, po, 5 mg/kg, PO 5 mg/kg, male CD1 mice, read-out: Flast (bioavailability)): 1.9%
AUC(0-inf) [4, 6]: 1770 ± 120 ng·h/mL
AUC(0-t) [4, 6]: 1340 ± 117 ng·h/mL
Cmax [4, 6]: 1040 ± 323 ng/mL
MRT [4, 6]: 7.29 ± 0.27 h
clearance ([4]; mouse, plasma, IV 2.5 mg/kg, male CD1 mice, read-out: Cl_obs): 23.6 ± 1.7 mL/min/kg
AUC(0-inf) [4, 7]: 90 ng·h/mL
AUC(0-t) [4, 7]: 46.9 ng·h/mL
Cmax [4, 7]: 19.1 ng/mL
